Where “and” joins values, the source holds several entries; their conditions need not be identical. Identical values can stand only once. Toxic doses and inconclusive results are not listed.
Tested on: CD2F1 mice, L1210 leukemia ip, survival T/C
Experiment: NCI In Vivo Anticancer Drug Screen. Data for tumor model L1210 Leukemia (intraperitoneal) in CD2F1 (CDF1) mice
Details: higher = longer survival
Procedure, shortened: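 Mice carrying a transplanted tumor received test compound or vehicle alone. The value is the measurement in the treated group divided by that in the vehicle-treated control group.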

[1] = endpoint: mean survival time, dose: 6.25 mg/kg/injection, schedule: Q01DX009 (ip), vehicle: saline with Tween-80
[2] = endpoint: mean survival time, dose: 12.5 mg/kg/injection, schedule: Q01DX009 (ip), vehicle: saline with Tween-80
[3] = endpoint: mean survival time, dose: 25.0 mg/kg/injection, schedule: Q01DX009 (ip), vehicle: saline with Tween-80
[4] = endpoint: mean survival time, dose: 100.0 mg/kg/injection, schedule: Q01DX009 (ip), vehicle: saline with Tween-80
[5] = endpoint: mean survival time, dose: 100.0 mg/kg/injection, schedule: Q04DX003 (ip), vehicle: saline with Tween-80
[6] = endpoint: mean survival time, dose: 200.0 mg/kg/injection, schedule: Q01DX009 (ip), vehicle: saline with Tween-80
[7] = endpoint: mean survival time, dose: 200.0 mg/kg/injection, schedule: Q04DX003 (ip), vehicle: saline with Tween-80
[8] = endpoint: mean survival time, dose: 400.0 mg/kg/injection, schedule: Q04DX003 (ip), vehicle: saline with Tween-80
[9] = endpoint: mean survival time, dose: 50.0 mg/kg/injection, schedule: Q01DX009 (ip), vehicle: saline with Tween-80

CC1CCC=C2C(=O)C3OC3C(C(C)(C)O)C21C (configuration not stated)
T/C (endpoint: mean survival time, dose: 100.0 mg/kg/injection, schedule: Q04DX003 (ip), vehicle: acetone): 93 % of control
T/C (endpoint: mean survival time, dose: 200.0 mg/kg/injection, schedule: Q04DX003 (ip), vehicle: acetone): 88 % of control
T/C (endpoint: mean survival time, dose: 400.0 mg/kg/injection, schedule: Q04DX003 (ip), vehicle: acetone): 88 % of control

Nc1ncnc2c1ncn2[C@@H](C=O)O[C@@H](C=O)CO
T/C (endpoint: mean survival time, dose: 3.12 mg/kg/injection, schedule: Q01DX009 (ip), vehicle: saline with Tween-80): 164 % of control
T/C (endpoint: mean survival time, dose: 3.13 mg/kg/injection, schedule: Q01DX005 (ip), vehicle: saline with Tween-80): 152 % of control
T/C (endpoint: mean survival time, dose: 6.25 mg/kg/injection, schedule: Q01DX005 (ip), vehicle: saline with Tween-80): 180 % of control
T/C [1]: 176 % of control
T/C (endpoint: mean survival time, dose: 12.5 mg/kg/injection, schedule: Q01DX005 (ip), vehicle: other): 165 % of control
T/C (endpoint: mean survival time, dose: 12.5 mg/kg/injection, schedule: Q01DX005 (ip), vehicle: saline with Tween-80): 153 % of control
T/C [2]: 185 % of control
T/C (endpoint: mean survival time, dose: 25.0 mg/kg/injection, schedule: Q01DX005 (ip), vehicle: other): 172 % of control
T/C [3]: 89 % of control

CC(C)CCC(=O)c1ccoc1
T/C (endpoint: median survival time, dose: 0.12 mg/kg/injection, schedule: Q03HX015 (ip), vehicle: saline with Tween-80): 100 % of control
T/C (endpoint: median survival time, dose: 0.25 mg/kg/injection, schedule: Q03HX015 (ip), vehicle: saline with Tween-80): 103 % of control
T/C (endpoint: median survival time, dose: 0.5 mg/kg/injection, schedule: Q03HX015 (ip), vehicle: saline with Tween-80): 101 % of control
T/C (endpoint: median survival time, dose: 1.0 mg/kg/injection, schedule: Q03HX015 (ip), vehicle: saline with Tween-80): 100 % of control
T/C (endpoint: median survival time, dose: 2.0 mg/kg/injection, schedule: Q03HX015 (ip), vehicle: saline with Tween-80): 96 % of control

Cc1cccc2c(CBr)cc(=O)[nH]c12
T/C (endpoint: mean survival time, dose: 12.5 mg/kg/injection, schedule: Q04DX003 (ip), vehicle: saline with Tween-80): 101 % of control
T/C (endpoint: mean survival time, dose: 25.0 mg/kg/injection, schedule: Q04DX003 (ip), vehicle: saline with Tween-80): 101 % of control
T/C (endpoint: mean survival time, dose: 50.0 mg/kg/injection, schedule: Q04DX003 (ip), vehicle: saline with Tween-80): 101 % of control

Cc1ccc(NC(=S)NCCO)cc1C
T/C [4]: 114 % of control

O=S1(=O)Oc2cccc3cccc1c23
T/C [4]: 95 % of control
T/C [5]: 102 % of control
T/C [6]: 98 % of control
T/C [7]: 102 % of control
T/C (endpoint: mean survival time, dose: 400.0 mg/kg/injection, schedule: Q01DX009 (ip), vehicle: saline with Tween-80): 92 % of control
T/C [8]: 103 % of control

O=c1ccc2nc3ccccc3sc-2c1
T/C (endpoint: mean survival time, dose: 25.0 mg/kg/injection, schedule: Q01DX009 (ip), vehicle: Klucel (hydroxypropylcellulose) (HPC)): 106 % of control
T/C (endpoint: mean survival time, dose: 50.0 mg/kg/injection, schedule: Q01DX009 (ip), vehicle: Klucel (hydroxypropylcellulose) (HPC)): 103 % of control
T/C [9]: 97 % of control
T/C (endpoint: mean survival time, dose: 100.0 mg/kg/injection, schedule: Q01DX009 (ip), vehicle: Klucel (hydroxypropylcellulose) (HPC)): 108 % of control
T/C (endpoint: mean survival time, dose: 200.0 mg/kg/injection, schedule: Q01DX009 (ip), vehicle: Klucel (hydroxypropylcellulose) (HPC)): 98 % of control

N#Cc1c(-c2ccc(F)cc2)c(-c2ccc(F)cc2)nn(CCO)c1=O
T/C (endpoint: median survival time, dose: 12.5 mg/kg/injection, schedule: Q01DX005 (ip), vehicle: distilled water + Tween-80): 98 % of control and 100 % of control
T/C (endpoint: median survival time, dose: 25.0 mg/kg/injection, schedule: Q01DX005 (ip), vehicle: distilled water + Tween-80): 98 % of control and 100 % of control
T/C (endpoint: median survival time, dose: 50.0 mg/kg/injection, schedule: Q01DX005 (ip), vehicle: distilled water + Tween-80): 102 % of control and 104 % of control
T/C (endpoint: median survival time, dose: 72.0 mg/kg/injection, schedule: Q01DX005 (ip), vehicle: water): 106 % of control and 111 % of control
T/C (endpoint: median survival time, dose: 100.0 mg/kg/injection, schedule: Q01DX005 (ip), vehicle: distilled water + Tween-80): 107 % of control
T/C (endpoint: median survival time, dose: 108.0 mg/kg/injection, schedule: Q01DX005 (ip), vehicle: distilled water + Tween-80): 118 % of control
T/C (endpoint: median survival time, dose: 120.0 mg/kg/injection, schedule: Q01DX005 (ip), vehicle: water): 121 % of control and 123 % of control
T/C (endpoint: median survival time, dose: 180.0 mg/kg/injection, schedule: Q01DX005 (ip), vehicle: distilled water + Tween-80): 124 % of control
T/C (endpoint: median survival time, dose: 200.0 mg/kg/injection, schedule: Q01DX005 (ip), vehicle: distilled water + Tween-80): 110 % of control
T/C (endpoint: median survival time, dose: 333.3 mg/kg/injection, schedule: Q01DX005 (ip), vehicle: water): 325 % of control
T/C (endpoint: median survival time, dose: 333.33 mg/kg/injection, schedule: Q01DX005 (ip), vehicle: water): 196 % of control
T/C (endpoint: median survival time, dose: 500.0 mg/kg/injection, schedule: Q01DX005 (ip), vehicle: distilled water + Tween-80): 204 % of control
T/C (endpoint: median survival time, dose: 555.55 mg/kg/injection, schedule: Q01DX005 (ip), vehicle: water): 264 % of control

CC1(c2ccc(Cl)cc2)OC(=O)C(=Cc2ccc([N+](=O)[O-])s2)C(=O)O1 (configuration not stated)
T/C [1]: 101 % of control
T/C [2]: 98 % of control and 101 % of control
T/C [3]: 96 % of control and 100 % of control
T/C [9]: 100 % of control and 101 % of control
T/C [4]: 102 % of control and 112 % of control
T/C [6]: 97 % of control

NCC(Br)CO (configuration not stated)
T/C (endpoint: mean survival time, dose: 31.3 mg/kg/injection, schedule: Q01DX001 (ip), vehicle: other): 95 % of control
T/C (endpoint: mean survival time, dose: 62.5 mg/kg/injection, schedule: Q01DX001 (ip), vehicle: other): 95 % of control
T/C (endpoint: mean survival time, dose: 125.0 mg/kg/injection, schedule: Q01DX001 (ip), vehicle: other): 100 % of control
T/C (endpoint: mean survival time, dose: 250.0 mg/kg/injection, schedule: Q01DX001 (ip), vehicle: other): 101 % of control
T/C (endpoint: mean survival time, dose: 500.0 mg/kg/injection, schedule: Q01DX001 (ip), vehicle: other): 97 % of control

COC1=CC(=O)C(C2CC(=O)c3c(O)cc(O)cc3O2)=CC1=O (configuration not stated)
T/C [4]: 101 % of control
T/C [5]: 100 % of control
T/C [7]: 100 % of control
T/C [8]: 98 % of control

c1ccc2c(c1)C1c3ccccc3C2c2ccccc21
T/C [5]: 95 % of control
T/C [7]: 100 % of control
T/C [8]: 94 % of control

CC(C)(CCC(=O)O)C(=O)c1ccccc1
T/C (endpoint: mean survival time, dose: 50.0 mg/kg/injection, schedule: Q04DX002 (ip), vehicle: saline with Tween-80): 98 % of control
T/C (endpoint: mean survival time, dose: 100.0 mg/kg/injection, schedule: Q04DX002 (ip), vehicle: saline with Tween-80): 94 % of control
T/C (endpoint: mean survival time, dose: 200.0 mg/kg/injection, schedule: Q04DX002 (ip), vehicle: saline with Tween-80): 94 % of control

CCOc1ccc(C(/C(Cl)=N/O)C(Cl)(Cl)Cl)cc1 (configuration not stated)
T/C (endpoint: mean survival time, dose: 12.5 mg/kg/injection, schedule: Q01DX009 (ip), vehicle: acetone): 94 % of control
T/C (endpoint: mean survival time, dose: 25.0 mg/kg/injection, schedule: Q01DX009 (ip), vehicle: acetone): 103 % of control
T/C (endpoint: mean survival time, dose: 50.0 mg/kg/injection, schedule: Q01DX009 (ip), vehicle: acetone): 108 % of control

CC(C)(Cl)S(=O)c1ccccc1 (configuration not stated)
T/C [5]: 93 % of control
T/C [7]: 93 % of control
T/C [8]: 95 % of control

CCOCCSc1ccccc1
T/C (endpoint: mean survival time, dose: 100.0 mg/kg/injection, schedule: Q01DX001 (ip), vehicle: saline): 104 % of control
T/C (endpoint: mean survival time, dose: 200.0 mg/kg/injection, schedule: Q01DX001 (ip), vehicle: saline): 102 % of control
T/C (endpoint: mean survival time, dose: 400.0 mg/kg/injection, schedule: Q01DX001 (ip), vehicle: saline): 102 % of control

CCOC(=O)C1(C(=O)OCC)C(C)CC2Nc3cc4c(cc3C(=O)N21)OCO4 (configuration not stated)
T/C (endpoint: mean survival time, dose: 100.0 mg/kg/injection, schedule: Q01DX001 (ip), vehicle: Klucel (hydroxypropylcellulose) (HPC)): 92 % of control
T/C (endpoint: mean survival time, dose: 200.0 mg/kg/injection, schedule: Q01DX001 (ip), vehicle: Klucel (hydroxypropylcellulose) (HPC)): 96 % of control
T/C (endpoint: mean survival time, dose: 400.0 mg/kg/injection, schedule: Q01DX001 (ip), vehicle: Klucel (hydroxypropylcellulose) (HPC)): 96 % of control

CCCCCCCCc1ccc(NNC(N)=S)cc1
T/C (endpoint: mean survival time, dose: 1.56 mg/kg/injection, schedule: Q01DX009 (ip), vehicle: saline): 93 % of control and 98 % of control and 101 % of control
T/C (endpoint: mean survival time, dose: 3.12 mg/kg/injection, schedule: Q01DX009 (ip), vehicle: saline): 96 % of control (2×) and 106 % of control
T/C (endpoint: mean survival time, dose: 6.25 mg/kg/injection, schedule: Q01DX009 (ip), vehicle: saline): 96 % of control and 97 % of control and 104 % of control
T/C (endpoint: mean survival time, dose: 12.5 mg/kg/injection, schedule: Q01DX009 (ip), vehicle: saline): 97 % of control (2×) and 101 % of control

Reference: PubChem BioAssay AID256 (DTP/NCI, 2004)
